{"source": "BindingDB's records for doi:10.1021/jm950922q", "about": "(University of North Carolina at Chapel Hill, 1996)"}
{"target": "HIV-RT (HIV reverse transcriptase)", "assay": "Inhibitory activity against HIV-RT", "units": {"IC50": "µM"}}
{"smiles": "C=C(C)[C@@H]1CC[C@]2(C(=O)O)CC[C@]3(C)[C@H](CC[C@@H]4[C@@]5(C)CC[C@H](O)C(C)(C)[C@@H]5CC[C@]43C)[C@@H]12", "IC50": "> 219"}
{"smiles": "CC(C)[C@@H]1CC[C@]2(C(=O)O)CC[C@]3(C)[C@H](CC[C@@H]4[C@@]5(C)CC[C@H](OC(=O)CC(C)(C)C(=O)O)C(C)(C)[C@@H]5CC[C@]43C)[C@@H]12", "note": "[2,2-Dimethyl-succinic acid 4-((1S,3aS,5aR,5bR,7aR,9S,11aR,11bR,13aR,13bR)-3a-carboxy-1-isopropyl-5a,5b,8,8,11a-pentamethyl-icosahydro-cyclopenta[a]chrysen-9-yl) ester]", "IC50": "> 171"}
{"smiles": "C=C(C)[C@@H]1CC[C@]2(C(=O)O)CC[C@]3(C)[C@H](CC[C@@H]4[C@@]5(C)CC[C@H](OC(=O)CC(C)(C)CC(=O)O)C(C)(C)[C@@H]5CC[C@]43C)[C@@H]12", "note": "[3,3-Dimethyl-pentanedioic acid mono-((1R,3aS,5aR,5bR,7aR,9S,11aR,11bR,13aR,13bR)-3a-carboxy-1-isopropenyl-5a,5b,8,8,11a-pentamethyl-icosahydro-cyclopenta[a]chrysen-9-yl) ester]", "IC50": "> 167"}
{"smiles": "CC(C)[C@@H]1CC[C@]2(C(=O)O)CC[C@]3(C)[C@H](CC[C@@H]4[C@@]5(C)CC[C@H](OC(=O)CC(C)(C)CC(=O)O)C(C)(C)[C@@H]5CC[C@]43C)[C@@H]12", "note": "[3,3-Dimethyl-pentanedioic acid mono-((1S,3aS,5aR,5bR,7aR,9S,11aR,11bR,13aR,13bR)-3a-carboxy-1-isopropyl-5a,5b,8,8,11a-pentamethyl-icosahydro-cyclopenta[a]chrysen-9-yl) ester]", "IC50": "> 167"}
{"smiles": "C=C(C)[C@@H]1CC[C@]2(C(=O)O)CC[C@]3(C)[C@H](CC[C@@H]4[C@@]5(C)CC[C@H](OC(=O)COCC(=O)O)C(C)(C)[C@@H]5CC[C@]43C)[C@@H]12", "note": "[(1R,3aS,5aR,5bR,7aR,9S,11aR,11bR,13aR,13bR)-9-(2-Carboxymethoxy-acetoxy)-1-isopropenyl-5a,5b,8,8,11a-pentamethyl-icosahydro-cyclopenta[a]chrysene-3a-carboxylic acid]", "IC50": "> 175"}
{"smiles": "C=C(C)[C@@H]1CC[C@]2(C(=O)O)CC[C@]3(C)[C@H](CC[C@@H]4[C@@]5(C)CC[C@H](OC(=O)C(C)(C)CC(=O)O)C(C)(C)[C@@H]5CC[C@]43C)[C@@H]12", "note": "[(1R,3aS,5aR,5bR,7aR,9S,11aR,11bR,13aR,13bR)-9-(3-carboxy-2,2-dimethylpropanoyloxy)-5a,5b,8,8,11a-pentamethyl-1-(prop-1-en-2-yl)icosahydro-1H-cyclopenta[a]chrysene-3a-carboxylic acid]", "IC50": "> 171"}
{"smiles": "CC(C)[C@@H]1CC[C@]2(C(=O)O)CC[C@]3(C)[C@H](CC[C@@H]4[C@@]5(C)CC[C@H](OC(=O)COCC(=O)O)C(C)(C)[C@@H]5CC[C@]43C)[C@@H]12", "note": "[(1S,3aS,5aR,5bR,7aR,9S,11aR,11bR,13aR,13bR)-9-(2-Carboxymethoxy-acetoxy)-1-isopropyl-5a,5b,8,8,11a-pentamethyl-icosahydro-cyclopenta[a]chrysene-3a-carboxylic acid]", "IC50": "> 174"}
{"smiles": "CC(C)[C@@H]1CC[C@]2(C(=O)O)CC[C@]3(C)[C@H](CC[C@@H]4[C@@]5(C)CC[C@H](O)C(C)(C)[C@@H]5CC[C@]43C)[C@@H]12", "note": "[Dihydrobetulinic acid]", "IC50": "> 218"}
